Laboratory results: ChEMBL document CHEMBL3407334, “Synthesis of novel inhibitors of α-glucosidase based on the benzothiazole skeleton containing benzohydrazide moiety and their molecular docking studies” (Eur J Med Chem, 2015)

Target: Maltase-glucoamylase (Homo sapiens, UniProt O43451)
Experiment: Inhibition of alpha-glucosidase (unknown origin) using pNPG substrate incubated for 15 mins by microplate reader based method; call rule not given here

Maltase-glucoamylase, sequence (O43451 whole entry): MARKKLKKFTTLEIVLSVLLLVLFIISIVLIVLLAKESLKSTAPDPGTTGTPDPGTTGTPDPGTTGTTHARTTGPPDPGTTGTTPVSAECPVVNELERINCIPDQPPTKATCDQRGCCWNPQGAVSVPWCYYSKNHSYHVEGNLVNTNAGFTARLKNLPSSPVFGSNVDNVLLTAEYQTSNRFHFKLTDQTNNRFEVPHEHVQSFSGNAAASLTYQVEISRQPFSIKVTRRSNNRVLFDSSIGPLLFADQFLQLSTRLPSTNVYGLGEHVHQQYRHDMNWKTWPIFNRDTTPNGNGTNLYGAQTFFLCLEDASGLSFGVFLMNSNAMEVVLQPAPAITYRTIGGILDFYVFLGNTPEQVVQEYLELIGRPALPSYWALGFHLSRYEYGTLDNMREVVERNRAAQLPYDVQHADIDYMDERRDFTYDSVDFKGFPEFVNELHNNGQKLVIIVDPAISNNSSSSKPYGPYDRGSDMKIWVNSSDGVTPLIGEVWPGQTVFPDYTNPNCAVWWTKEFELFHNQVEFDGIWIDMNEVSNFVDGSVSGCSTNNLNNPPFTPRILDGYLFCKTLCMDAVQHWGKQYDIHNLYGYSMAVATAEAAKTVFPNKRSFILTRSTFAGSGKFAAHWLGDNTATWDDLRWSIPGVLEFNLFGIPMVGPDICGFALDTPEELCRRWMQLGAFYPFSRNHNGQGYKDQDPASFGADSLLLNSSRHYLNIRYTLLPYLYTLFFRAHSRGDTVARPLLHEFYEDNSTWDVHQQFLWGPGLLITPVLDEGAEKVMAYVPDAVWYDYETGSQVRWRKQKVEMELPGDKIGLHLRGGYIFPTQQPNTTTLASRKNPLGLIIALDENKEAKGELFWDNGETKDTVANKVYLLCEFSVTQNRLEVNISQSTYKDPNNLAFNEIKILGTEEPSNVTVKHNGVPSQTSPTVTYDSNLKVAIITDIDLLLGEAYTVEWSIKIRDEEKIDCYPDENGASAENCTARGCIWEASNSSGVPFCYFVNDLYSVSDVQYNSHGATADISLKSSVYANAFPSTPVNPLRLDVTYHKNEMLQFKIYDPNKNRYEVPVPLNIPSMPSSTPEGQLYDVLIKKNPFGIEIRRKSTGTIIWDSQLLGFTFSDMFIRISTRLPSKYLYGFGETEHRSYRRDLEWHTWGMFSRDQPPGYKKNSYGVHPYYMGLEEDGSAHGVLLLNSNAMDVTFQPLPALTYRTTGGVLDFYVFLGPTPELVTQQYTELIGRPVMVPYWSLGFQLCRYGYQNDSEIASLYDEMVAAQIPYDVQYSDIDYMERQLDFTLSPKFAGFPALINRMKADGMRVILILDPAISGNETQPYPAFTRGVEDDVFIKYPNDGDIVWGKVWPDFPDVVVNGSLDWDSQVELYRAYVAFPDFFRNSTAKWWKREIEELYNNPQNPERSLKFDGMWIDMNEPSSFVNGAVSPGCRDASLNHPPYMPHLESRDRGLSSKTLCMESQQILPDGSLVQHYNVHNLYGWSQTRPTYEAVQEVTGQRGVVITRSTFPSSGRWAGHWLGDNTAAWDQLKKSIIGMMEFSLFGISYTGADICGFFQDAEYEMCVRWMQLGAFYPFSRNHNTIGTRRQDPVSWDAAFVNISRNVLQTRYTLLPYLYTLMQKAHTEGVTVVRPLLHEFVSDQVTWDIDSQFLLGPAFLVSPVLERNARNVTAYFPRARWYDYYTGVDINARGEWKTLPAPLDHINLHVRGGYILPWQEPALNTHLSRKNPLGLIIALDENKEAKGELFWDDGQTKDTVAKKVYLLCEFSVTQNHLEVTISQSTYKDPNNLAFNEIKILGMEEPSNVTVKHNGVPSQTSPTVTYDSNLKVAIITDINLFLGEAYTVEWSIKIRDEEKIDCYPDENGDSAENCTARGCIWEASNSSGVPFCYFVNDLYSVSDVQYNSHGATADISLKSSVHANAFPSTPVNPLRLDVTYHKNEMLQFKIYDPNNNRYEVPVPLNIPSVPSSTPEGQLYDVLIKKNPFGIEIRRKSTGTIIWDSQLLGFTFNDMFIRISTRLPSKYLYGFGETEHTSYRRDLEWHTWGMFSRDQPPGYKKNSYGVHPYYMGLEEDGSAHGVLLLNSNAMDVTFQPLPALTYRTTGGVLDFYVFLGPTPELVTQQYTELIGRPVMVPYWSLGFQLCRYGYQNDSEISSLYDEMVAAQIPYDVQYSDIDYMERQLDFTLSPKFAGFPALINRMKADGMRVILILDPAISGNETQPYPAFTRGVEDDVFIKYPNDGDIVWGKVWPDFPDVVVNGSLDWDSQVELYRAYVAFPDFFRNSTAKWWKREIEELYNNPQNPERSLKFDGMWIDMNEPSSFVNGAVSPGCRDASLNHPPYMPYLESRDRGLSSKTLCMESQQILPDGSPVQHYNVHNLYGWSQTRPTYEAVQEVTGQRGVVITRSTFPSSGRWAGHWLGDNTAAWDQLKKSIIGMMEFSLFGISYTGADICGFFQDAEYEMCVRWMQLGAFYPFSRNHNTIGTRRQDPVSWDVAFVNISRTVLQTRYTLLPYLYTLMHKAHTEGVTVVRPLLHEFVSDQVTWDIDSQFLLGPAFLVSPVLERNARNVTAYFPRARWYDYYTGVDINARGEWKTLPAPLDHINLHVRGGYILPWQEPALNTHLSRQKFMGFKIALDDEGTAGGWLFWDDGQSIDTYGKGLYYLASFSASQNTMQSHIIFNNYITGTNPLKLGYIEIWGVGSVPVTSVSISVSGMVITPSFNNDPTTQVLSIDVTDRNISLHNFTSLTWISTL

| Structure (SMILES) | IC50 |
| --- | --- |
| O=C(N/N=C/c1cccnc1)c1ccc(-c2nc3ccccc3s2)cc1 | Not Active |
| COC(=O)c1ccc(/C=N/NC(=O)c2ccc(-c3nc4ccccc4s3)cc2)cc1 | Not Active |
| O=C(N/N=C/c1ccncc1)c1ccc(-c2nc3ccccc3s2)cc1 | Not Active |

Now from value to compound:

| IC50 | Structure (SMILES) |
| --- | --- |
| Not Active | COc1ccc(/C=N/NC(=O)c2ccc(-c3nc4ccccc4s3)cc2)cc1OC |
| Not Active | COc1ccc(/C=N/NC(=O)c2ccc(-c3nc4ccccc4s3)cc2)cc1O |
